Measurements from the NIST ThermoML archive (doi:10.1021/je100967k).

Columns and labels:
[1] = xn = mol fraction of the nth substance listed; conditions: 101 kPa, Liquid; for speed of sound: Pulse-echo method
[2] = refractive index (Na D-line) (dimensionless); xn = mol fraction of the nth substance listed; conditions: 101 kPa, Liquid, Standard Abbe refractometry

CN1CCCC1=O [N-methylpyrrolidone] + CCO
Conditions | mass density, [1] [kg/m3] | refractive index, [2] | speed of sound, [1] [m/s] | viscosity, [1] [mPa·s]
293.15 K, x1 = 0.0992 | 829.76 | 1.3797 | 1226.1 | 1.139
293.15 K, x1 = 0.1985 | 864.84 | 1.3953 | 1284.2 | 1.173
293.15 K, x1 = 0.2973 | 894.36 | 1.4089 | 1331.7 | 1.218
293.15 K, x1 = 0.3963 | 920.89 | 1.4209 | 1375.7 | 1.275
293.15 K, x1 = 0.4948 | 944.41 | 1.4313 | 1414.8 | 1.354
293.15 K, x1 = 0.5932 | 965 | 1.4406 | 1448.9 | 1.436
293.15 K, x1 = 0.6912 | 983.96 | 1.449 | 1480.7 | 1.524
293.15 K, x1 = 0.7897 | 1000.86 | 1.4563 | 1509.4 | 1.626
293.15 K, x1 = 0.8875 | 1016.79 | 1.4633 | 1537 | 1.726
293.15 K, x1 = 1 | 1032.87 | 1.4706 | 1565.3 | 1.858
303.15 K, x1 = 0.0992 | 820.98 | 1.376 | 1191.3 | 0.9625
303.15 K, x1 = 0.1985 | 855.96 | 1.3916 | 1248.9 | 0.986
303.15 K, x1 = 0.2973 | 885.42 | 1.4051 | 1295.9 | 1.033
303.15 K, x1 = 0.3963 | 911.91 | 1.4168 | 1338.9 | 1.09
303.15 K, x1 = 0.4948 | 935.43 | 1.4273 | 1377.6 | 1.15
303.15 K, x1 = 0.5932 | 955.97 | 1.4366 | 1411.4 | 1.22
303.15 K, x1 = 0.6912 | 974.94 | 1.4449 | 1442.9 | 1.292
303.15 K, x1 = 0.7897 | 991.85 | 1.4523 | 1471.4 | 1.371
303.15 K, x1 = 0.8875 | 1007.8 | 1.4593 | 1498.5 | 1.45
303.15 K, x1 = 1 | 1023.95 | 1.4664 | 1526.5 | 1.553
313.15 K, x1 = 0.0992 | 812.09 | 1.3717 | 1157 | 0.803
313.15 K, x1 = 0.1985 | 846.98 | 1.3872 | 1214.7 | 0.8276
313.15 K, x1 = 0.2973 | 876.39 | 1.4011 | 1260.3 | 0.867
313.15 K, x1 = 0.3963 | 902.87 | 1.4127 | 1302.5 | 0.9234
313.15 K, x1 = 0.4948 | 926.39 | 1.4234 | 1341 | 0.98
313.15 K, x1 = 0.5932 | 946.9 | 1.4329 | 1374.2 | 1.039
313.15 K, x1 = 0.6912 | 965.89 | 1.4411 | 1405.3 | 1.109
313.15 K, x1 = 0.7897 | 982.82 | 1.4484 | 1433.5 | 1.173
313.15 K, x1 = 0.8875 | 998.8 | 1.4552 | 1460.3 | 1.237
313.15 K, x1 = 1 | 1015.03 | 1.4621 | 1487.8 | 1.324
323.15 K, x1 = 0.0992 | 803.05 | 1.3677 | 1122.7 | 0.657
323.15 K, x1 = 0.1985 | 837.87 | 1.3837 | 1179.6 | 0.691
323.15 K, x1 = 0.2973 | 867.27 | 1.3974 | 1224.9 | 0.731
323.15 K, x1 = 0.3963 | 893.76 | 1.4089 | 1266.6 | 0.782
323.15 K, x1 = 0.4948 | 917.3 | 1.4195 | 1304.6 | 0.833
323.15 K, x1 = 0.5932 | 937.79 | 1.4289 | 1337.3 | 0.895
323.15 K, x1 = 0.6912 | 956.8 | 1.4372 | 1368.3 | 0.952
323.15 K, x1 = 0.7897 | 973.77 | 1.4443 | 1396.1 | 1.011
323.15 K, x1 = 0.8875 | 989.78 | 1.4512 | 1422.8 | 1.071
323.15 K, x1 = 1 | 1006.1 | 1.4576 | 1450.2 | 1.146
